Each block holds one compound with its values, some of them ahead of it.
Assays:
[1] = system: Salmonella typhimurium; assay: Mutagenicity in Salmonella typhimurium TA100 up to 5000 ug/ml by Ames test in absence of rat S9 fraction; type: toxicity, organism-based; conditions: salmonella enterica subsp. enterica serovar typhimurium
[2] = system: Salmonella typhimurium; assay: Mutagenicity in Salmonella typhimurium TA100 up to 5000 ug/ml by Ames test in presence of rat S9 fraction; type: toxicity, organism-based; conditions: salmonella enterica subsp. enterica serovar typhimurium
[3] = system: Escherichia coli; assay: Mutagenicity in Escherichia coli WP2uvrA up to 5000 ug/ml by Ames test in presence of rat S9 fraction; type: toxicity, organism-based
[4] = system: Salmonella typhimurium; assay: Mutagenicity in Salmonella typhimurium TA98 up to 5000 ug/ml by Ames test in presence of rat S9 fraction; type: toxicity, organism-based; conditions: salmonella enterica subsp. enterica serovar typhimurium
[5] = system: Escherichia coli; assay: Mutagenicity in Escherichia coli WP2uvrA up to 5000 ug/ml by Ames test in absence of rat S9 fraction; type: toxicity, organism-based
[6] = system: Salmonella typhimurium; assay: Mutagenicity in Salmonella typhimurium TA98 up to 5000 ug/ml by Ames test in absence of rat S9 fraction; type: toxicity, organism-based; conditions: salmonella enterica subsp. enterica serovar typhimurium
[7] = biological target: Phosphatidylinositol 4,5-bisphosphate 3-kinase catalytic subunit gamma isoform (Homo sapiens, UniProt P48736); assay: Inhibition of human PI3Kgamma using PtdIns/PtdSer as substrate after 2 hrs by scintillation counting analysis in presence of gamma[33P]ATP
Chain of Phosphatidylinositol 4,5-bisphosphate 3-kinase catalytic subunit gamma isoform (Homo sapiens, UniProt P48736) (P48736 whole entry, canonical isoform): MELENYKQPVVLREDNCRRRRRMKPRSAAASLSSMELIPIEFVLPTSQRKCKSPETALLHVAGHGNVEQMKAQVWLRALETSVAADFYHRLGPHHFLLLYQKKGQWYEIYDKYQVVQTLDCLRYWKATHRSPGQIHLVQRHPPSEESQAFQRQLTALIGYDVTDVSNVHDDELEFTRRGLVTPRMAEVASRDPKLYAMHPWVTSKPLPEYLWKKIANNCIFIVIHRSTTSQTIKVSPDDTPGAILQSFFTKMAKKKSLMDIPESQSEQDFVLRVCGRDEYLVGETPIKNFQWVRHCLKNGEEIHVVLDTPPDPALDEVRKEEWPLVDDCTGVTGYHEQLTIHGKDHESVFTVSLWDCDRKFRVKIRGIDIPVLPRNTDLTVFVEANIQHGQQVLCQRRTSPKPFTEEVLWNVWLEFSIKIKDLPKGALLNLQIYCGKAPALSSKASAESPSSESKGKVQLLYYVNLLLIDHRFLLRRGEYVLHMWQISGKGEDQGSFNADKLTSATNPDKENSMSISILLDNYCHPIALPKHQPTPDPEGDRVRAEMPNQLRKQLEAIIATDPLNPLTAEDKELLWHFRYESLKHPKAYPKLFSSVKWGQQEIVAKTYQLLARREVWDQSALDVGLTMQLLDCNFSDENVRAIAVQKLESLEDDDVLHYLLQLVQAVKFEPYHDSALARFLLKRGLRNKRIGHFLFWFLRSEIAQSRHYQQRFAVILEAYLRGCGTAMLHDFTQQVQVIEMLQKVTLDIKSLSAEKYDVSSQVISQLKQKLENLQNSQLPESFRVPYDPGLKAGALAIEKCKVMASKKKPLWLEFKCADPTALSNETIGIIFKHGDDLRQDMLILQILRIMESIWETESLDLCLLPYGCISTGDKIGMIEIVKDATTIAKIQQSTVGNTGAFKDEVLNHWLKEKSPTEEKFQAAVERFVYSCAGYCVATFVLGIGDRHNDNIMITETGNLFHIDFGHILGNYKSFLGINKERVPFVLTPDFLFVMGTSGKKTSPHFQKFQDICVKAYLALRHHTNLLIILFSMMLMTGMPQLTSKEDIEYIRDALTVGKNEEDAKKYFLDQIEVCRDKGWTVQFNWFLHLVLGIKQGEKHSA

[8] = system: Salmonella typhimurium; assay: Mutagenicity in Salmonella typhimurium TA100 up to 2000 ug/ml by Ames fluctuation test; type: toxicity, organism-based; conditions: salmonella enterica subsp. enterica serovar typhimurium
[9] = system: Salmonella typhimurium; assay: Mutagenicity in Salmonella typhimurium TA98 up to 2000 ug/ml by Ames fluctuation test; type: toxicity, organism-based; conditions: salmonella enterica subsp. enterica serovar typhimurium
[10] = biological target: Phosphatidylinositol 4,5-bisphosphate 3-kinase catalytic subunit gamma isoform (Mus musculus, UniProt Q9JHG7); assay: Inhibition of PI3Kgamma in mouse RAW264.7 cells assessed as C5a-mediated PKB/Akt phosphorylation preincubated for 30 mins followed by C5a stimulation measured after 5 mins; type: cell-based
Chain of Phosphatidylinositol 4,5-bisphosphate 3-kinase catalytic subunit gamma isoform (Mus musculus, UniProt Q9JHG7) (Q9JHG7 whole entry, canonical isoform): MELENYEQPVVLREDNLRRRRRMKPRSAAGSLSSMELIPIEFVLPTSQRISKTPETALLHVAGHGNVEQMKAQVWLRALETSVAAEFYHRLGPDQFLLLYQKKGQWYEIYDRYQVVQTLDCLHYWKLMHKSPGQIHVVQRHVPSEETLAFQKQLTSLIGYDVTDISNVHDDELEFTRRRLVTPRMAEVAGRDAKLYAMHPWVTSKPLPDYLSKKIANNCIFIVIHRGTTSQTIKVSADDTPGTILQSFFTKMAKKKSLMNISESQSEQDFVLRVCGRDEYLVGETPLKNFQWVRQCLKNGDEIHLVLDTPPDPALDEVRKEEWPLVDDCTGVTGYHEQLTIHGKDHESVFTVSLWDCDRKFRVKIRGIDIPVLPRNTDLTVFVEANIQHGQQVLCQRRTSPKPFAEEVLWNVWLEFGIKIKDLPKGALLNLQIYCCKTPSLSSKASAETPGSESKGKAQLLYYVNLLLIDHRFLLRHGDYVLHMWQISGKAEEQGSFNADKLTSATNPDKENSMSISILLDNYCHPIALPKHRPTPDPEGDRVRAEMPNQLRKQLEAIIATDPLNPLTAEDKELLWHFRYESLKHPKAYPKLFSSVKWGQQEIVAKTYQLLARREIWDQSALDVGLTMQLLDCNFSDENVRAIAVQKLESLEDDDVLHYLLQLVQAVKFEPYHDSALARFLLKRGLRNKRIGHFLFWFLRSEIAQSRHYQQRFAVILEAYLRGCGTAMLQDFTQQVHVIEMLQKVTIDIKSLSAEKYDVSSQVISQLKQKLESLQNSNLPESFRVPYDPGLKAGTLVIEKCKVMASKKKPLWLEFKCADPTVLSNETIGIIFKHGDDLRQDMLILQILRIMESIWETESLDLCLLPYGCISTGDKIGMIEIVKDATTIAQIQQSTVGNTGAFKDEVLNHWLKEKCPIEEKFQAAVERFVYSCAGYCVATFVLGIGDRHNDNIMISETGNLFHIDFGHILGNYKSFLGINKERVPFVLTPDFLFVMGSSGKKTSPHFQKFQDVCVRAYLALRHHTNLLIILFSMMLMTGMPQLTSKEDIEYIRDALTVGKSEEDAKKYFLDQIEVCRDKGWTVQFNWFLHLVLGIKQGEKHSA

[11] = Metabolic stability in rat hepatocytes assessed as compound remaining at 5 uM after 1 hr by LC-MS/MS analysis; type: ADME, cell-based, Hepatocyte; conditions: read-out: Stability
[12] = Metabolic stability in rat liver microsomes assessed as compound remaining at 5 uM after 15 mins by LC-MS/MS analysis; type: ADME; conditions: read-out: Stability
[13] = Metabolic stability in human liver microsomes assessed as compound remaining at 5 uM after 15 mins by LC-MS/MS analysis; type: ADME; conditions: read-out: Stability
[14] = Cmax in Sprague-Dawley rat at 30 mg/kg, po; type: ADME, organism-based; design: dose 30 mg/kg, route oral; conditions: in vivo
[15] = Metabolic stability in human hepatocytes assessed as compound remaining at 5 uM after 1 hr by LC-MS/MS analysis; type: ADME, cell-based, Hepatocyte; conditions: read-out: Stability
[16] = AUC (0 to 8 hrs) in Sprague-Dawley rat at 30 mg/kg, po; type: ADME, organism-based; design: time < 8 hr, dose 30 mg/kg, route oral; conditions: plasma
[17] = biological target: Cytochrome P450 2C9 (Homo sapiens, UniProt P11712); assay: Inhibition of CYP2C9 (unknown origin) up to 10 uM; type: ADME
Chain of Cytochrome P450 2C9 (P11712 whole entry): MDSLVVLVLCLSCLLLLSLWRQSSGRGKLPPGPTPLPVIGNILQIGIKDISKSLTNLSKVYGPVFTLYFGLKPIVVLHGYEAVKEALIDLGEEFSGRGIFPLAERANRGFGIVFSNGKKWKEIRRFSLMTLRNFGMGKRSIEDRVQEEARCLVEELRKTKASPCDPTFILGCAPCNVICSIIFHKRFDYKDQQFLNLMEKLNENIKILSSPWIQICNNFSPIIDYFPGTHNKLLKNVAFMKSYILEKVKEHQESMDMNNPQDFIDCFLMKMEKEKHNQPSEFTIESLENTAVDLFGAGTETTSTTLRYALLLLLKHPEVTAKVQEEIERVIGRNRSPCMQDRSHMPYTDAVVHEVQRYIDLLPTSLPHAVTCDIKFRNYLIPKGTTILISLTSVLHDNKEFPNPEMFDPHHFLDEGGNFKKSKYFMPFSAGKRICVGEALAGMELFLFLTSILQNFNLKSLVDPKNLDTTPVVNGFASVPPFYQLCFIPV

[18] = biological target: Cytochrome P450 2C19 (Homo sapiens, UniProt P33261); assay: Inhibition of CYP2C19 (unknown origin) up to 10 uM; type: ADME
Chain of Cytochrome P450 2C19 (P33261 whole entry): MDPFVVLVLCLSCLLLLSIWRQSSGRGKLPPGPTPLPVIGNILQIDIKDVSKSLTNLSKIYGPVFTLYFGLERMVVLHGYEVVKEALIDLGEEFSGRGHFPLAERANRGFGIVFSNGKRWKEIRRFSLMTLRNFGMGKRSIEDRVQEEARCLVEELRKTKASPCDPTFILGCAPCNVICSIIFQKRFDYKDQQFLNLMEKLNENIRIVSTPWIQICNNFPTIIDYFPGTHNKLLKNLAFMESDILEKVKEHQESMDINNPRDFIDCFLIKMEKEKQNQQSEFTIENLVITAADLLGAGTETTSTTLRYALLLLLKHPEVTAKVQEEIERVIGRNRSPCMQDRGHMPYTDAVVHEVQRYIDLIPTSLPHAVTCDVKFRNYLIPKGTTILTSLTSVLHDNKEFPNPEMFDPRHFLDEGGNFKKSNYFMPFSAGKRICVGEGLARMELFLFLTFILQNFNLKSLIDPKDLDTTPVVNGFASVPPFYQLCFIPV

[19] = system: Mus musculus; assay: Antiarthritic activity in po dosed DBA/1 mouse assessed as suppression of acute collagen-induced arthritis administered as bid for 14 days; type: functional, organism-based
[20] = biological target: T1, Cytochrome P450 1A2 (Homo sapiens, UniProt P05177); assay: Inhibition of CYP1A2 (unknown origin) up to 10 uM; type: ADME
T1 sequence (P05177 whole entry): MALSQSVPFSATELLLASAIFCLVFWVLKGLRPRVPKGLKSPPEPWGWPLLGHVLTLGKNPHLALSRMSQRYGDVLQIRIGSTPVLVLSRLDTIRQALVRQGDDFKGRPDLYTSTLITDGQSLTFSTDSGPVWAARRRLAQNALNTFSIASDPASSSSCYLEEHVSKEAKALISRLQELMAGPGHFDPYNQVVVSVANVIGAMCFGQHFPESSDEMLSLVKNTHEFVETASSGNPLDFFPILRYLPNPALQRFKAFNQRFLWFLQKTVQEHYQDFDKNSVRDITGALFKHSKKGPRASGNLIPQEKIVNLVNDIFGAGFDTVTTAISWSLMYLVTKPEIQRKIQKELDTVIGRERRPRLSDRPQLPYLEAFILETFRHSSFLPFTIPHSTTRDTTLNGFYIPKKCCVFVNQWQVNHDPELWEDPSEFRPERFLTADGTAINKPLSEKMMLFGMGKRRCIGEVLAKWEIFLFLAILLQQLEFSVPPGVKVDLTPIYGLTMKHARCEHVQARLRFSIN

[21] = biological target: Cytochrome P450 2D6 (Homo sapiens, UniProt P10635); assay: Inhibition of CYP2D6 (unknown origin) up to 10 uM; type: ADME
Chain of Cytochrome P450 2D6 (P10635 whole entry): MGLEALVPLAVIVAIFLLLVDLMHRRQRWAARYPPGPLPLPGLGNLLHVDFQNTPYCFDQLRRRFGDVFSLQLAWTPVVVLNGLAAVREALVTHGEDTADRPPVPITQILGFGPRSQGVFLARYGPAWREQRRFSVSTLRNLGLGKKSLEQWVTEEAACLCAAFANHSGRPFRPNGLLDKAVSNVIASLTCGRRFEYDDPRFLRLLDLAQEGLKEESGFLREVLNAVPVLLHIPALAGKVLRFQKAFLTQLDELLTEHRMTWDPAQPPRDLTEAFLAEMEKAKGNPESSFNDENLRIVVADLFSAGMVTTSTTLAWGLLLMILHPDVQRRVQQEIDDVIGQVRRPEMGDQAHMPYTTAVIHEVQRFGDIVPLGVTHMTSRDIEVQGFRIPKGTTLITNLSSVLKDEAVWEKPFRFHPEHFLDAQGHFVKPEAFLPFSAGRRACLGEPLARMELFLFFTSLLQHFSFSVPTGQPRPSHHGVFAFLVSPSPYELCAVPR

[22] = biological target: Cytochrome P450 3A4 (Homo sapiens, UniProt P08684); assay: Inhibition of CYP3A4 (unknown origin) up to 10 uM; type: ADME
Chain of Cytochrome P450 3A4 (P08684 whole entry): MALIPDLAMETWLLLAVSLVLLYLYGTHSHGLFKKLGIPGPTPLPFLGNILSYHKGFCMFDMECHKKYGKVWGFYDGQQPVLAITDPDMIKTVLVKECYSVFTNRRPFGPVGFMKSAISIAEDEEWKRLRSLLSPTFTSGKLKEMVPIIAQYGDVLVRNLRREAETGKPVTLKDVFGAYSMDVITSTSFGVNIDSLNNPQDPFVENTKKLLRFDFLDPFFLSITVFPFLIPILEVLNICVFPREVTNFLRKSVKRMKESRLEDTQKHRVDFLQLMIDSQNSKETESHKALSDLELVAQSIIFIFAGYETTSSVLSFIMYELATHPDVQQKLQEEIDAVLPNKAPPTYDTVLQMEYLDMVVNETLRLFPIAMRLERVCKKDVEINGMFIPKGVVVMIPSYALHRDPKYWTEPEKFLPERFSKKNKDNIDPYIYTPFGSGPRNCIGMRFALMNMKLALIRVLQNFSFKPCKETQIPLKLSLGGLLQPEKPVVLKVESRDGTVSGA

IC50 [7]: 0.068 µM
Structure (SMILES): Cc1nc(N)sc1-c1nc(C(C)(C)C)no1
Activity [1]: Non-toxic
Activity [2]: Non-toxic
Activity [3]: Non-toxic
Activity [4]: Non-toxic
Activity [5]: Non-toxic
Activity [6]: Non-toxic
Activity [8]: Non-toxic
Activity [9]: Non-toxic

IC50 [10]: 0.191 µM
remaining at 1 h, 5 µM [11]: 11.3%
remaining at 0.25 h, 5 µM [12]: 94%
remaining at 0.25 h, 5 µM [13]: 102%
Cmax [14]: 38 ng/mL
remaining at 1 h, 5 µM [15]: 9.3%
IC50 [7]: 0.0072 µM
AUC(0-t) at 8 h [16]: 92 ng·h/mL
Structure (SMILES): CC(=O)Nc1nc(C)c(-c2nc(CC(C)(C)CO)no2)s1

IC50 [10]: 0.558 µM
IC50 [7]: 0.057 µM
Structure (SMILES): CC(=O)Nc1nc(C)c(-c2nc(C3CCOC3)no2)s1 (stereo not drawn)

IC50 [10]: 0.155 µM
remaining at 1 h, 5 µM [11]: 20.9%
remaining at 0.25 h, 5 µM [12]: 91.5%
remaining at 0.25 h, 5 µM [13]: 94.1%
Cmax [14]: 7800 ng/mL
remaining at 1 h, 5 µM [15]: 35.2%
IC50 [7]: 0.017 µM
AUC(0-t) at 8 h [16]: 10900 ng·h/mL
Structure (SMILES): CC(=O)Nc1nc(C)c(-c2nc(CC(C)(C)C(C)O)no2)s1 (stereo not drawn)

IC50 [7]: 0.068 µM
Structure (SMILES): CC(=O)Nc1nc(C)c(-c2nc(CC(C)(C)O)no2)s1

IC50 [7]: 0.081 µM
Structure (SMILES): Cc1nc(N)sc1-c1cnc(C(C)(C)C)o1
Activity [1]: Toxic
Activity [2]: Toxic
Activity [3]: Toxic
Activity [4]: Toxic
Activity [5]: Toxic
Activity [6]: Toxic
Activity [8]: Toxic
Activity [9]: Toxic

IC50 [10]: 0.294 µM
remaining at 1 h, 5 µM [11]: 62.1%
remaining at 0.25 h, 5 µM [12]: 97.1%
inhibition (INH) [17]: Not Active
inhibition (INH) [18]: Not Active
remaining at 0.25 h, 5 µM [13]: 96.9%
Cmax [14]: 3920 ng/mL
inhibition (INH) [20]: Not Active
inhibition (INH) [21]: Not Active
remaining at 1 h, 5 µM [15]: 75.7%
IC50 [7]: 0.029 µM
inhibition (INH) [22]: Not Active
AUC(0-t) at 8 h [16]: 10800 ng·h/mL
Structure (SMILES): CC(=O)Nc1nc(C)c(-c2nc(N3CCCC(O)C3)no2)s1 (stereo not drawn)
Activity [1]: Non-toxic
Activity [2]: Non-toxic
Activity [3]: Non-toxic
Activity [4]: Non-toxic
Activity [5]: Non-toxic
Activity [6]: Non-toxic
Activity [19]: Dose-dependent effect
Activity [8]: Non-toxic
Activity [9]: Non-toxic

IC50 [10]: 0.278 µM
remaining at 0.25 h, 5 µM [12]: 72.9%
remaining at 0.25 h, 5 µM [13]: 79.1%
Cmax [14]: 345 ng/mL
IC50 [7]: 0.028 µM
AUC(0-t) at 8 h [16]: 1180 ng·h/mL
Structure (SMILES): CC(=O)Nc1nc(C)c(-c2nc(CC(F)(F)F)no2)s1

Structure (SMILES): Cc1nc(N)sc1-c1nc(N2CCCC(O)C2)no1 (stereo not drawn)
Activity [1]: Non-toxic
Activity [2]: Non-toxic
Activity [3]: Non-toxic
Activity [4]: Non-toxic
Activity [5]: Non-toxic
Activity [6]: Non-toxic
Activity [8]: Non-toxic
Activity [9]: Non-toxic

IC50 [7]: 0.062 µM
Structure (SMILES): CC(=O)Nc1nc(C)c(-c2nc(C(C)(C)CCO)no2)s1

IC50 [7]: 0.068 µM
Structure (SMILES): COCC(C)(C)Cc1noc(-c2sc(NC(C)=O)nc2C)n1

Structure (SMILES): CC(=O)Nc1nc(C)c(-c2cnc(C(C)(C)C)o2)s1
Activity [1]: Non-toxic
Activity [2]: Non-toxic
Activity [3]: Non-toxic
Activity [4]: Non-toxic
Activity [5]: Non-toxic
Activity [6]: Non-toxic

IC50 [10]: 0.231 µM
IC50 [7]: 0.014 µM
Structure (SMILES): CC(=O)Nc1nc(C)c(-c2nc(C(C)(C)C)no2)s1

IC50 [7]: 0.203 µM
Structure (SMILES): CC(=O)Nc1nc(C)c(-c2nc(CCC(C)(C)O)no2)s1

IC50 [7]: 0.158 µM
Structure (SMILES): CC(=O)Nc1nc(C)c(-c2nc(CCO)no2)s1

IC50 [7]: 0.121 µM
Structure (SMILES): CC(=O)Nc1nc(C)c(-c2nc(CCCO)no2)s1

IC50 [7]: 0.052 µM
Structure (SMILES): CC(=O)Nc1nc(C)c(-c2nc(C(C)(C)CO)no2)s1

IC50 [7]: 0.1 µM
Structure (SMILES): CC(=O)Nc1nc(C)c(-c2nc(N3CCOCC3)no2)s1

— ChEMBL document CHEMBL3091363, “Discovery of N-{5-[3-(3-hydroxypiperidin-1-yl)-1,2,4-oxadiazol-5-yl]-4-methyl-1,3-thiazol-2-yl}acetamide (TASP0415914) as an orally potent phosphoinositide 3-kinase γ inhibitor for the treatment of inflammatory diseases” (Bioorg Med Chem, 2013)
